Assay results reported in patent publication US10351575B2, “Bicyclic urea, thiourea, guanidine and cyanoguanidine compounds useful for the treatment of pain” (Array BioPharma Inc., priority 2012, dated 2019).

What was measured:
MST2 = MST2 (Homo sapiens (Human), UniProt Q13188); test: KinaseProfiler off-target kinase profiling; assay type: biochemical; settings: 10 μM, ATP near Km
Procedure: (§1) Representative compounds (Examples 12, 32, 26 and 2) of the invention were tested for off-target kinase activity at a concentration of 10 μM by Millipore, Inc. in their KinaseProfiler™ service against all the kinases available in their full kinase panel. Compounds were run in duplicate at a concentration of ATP near the Km for each individual kinase according to Millipore's specifications. The results are shown in Table B. Data are reported as percent of control (POC) and are the average of the two replicates.

CHK2 = CHK2 (Homo sapiens (Human), UniProt O96017); test: KinaseProfiler off-target kinase profiling; assay type: biochemical; settings: 10 μM, ATP near Km
Procedure: as §1

LIMK1 = LIMK1 (Homo sapiens (Human), UniProt P53667); test: KinaseProfiler off-target kinase profiling; assay type: biochemical; settings: 10 μM, ATP near Km
Procedure: as §1

MELK = MELK (Homo sapiens (Human), UniProt Q14680); test: KinaseProfiler off-target kinase profiling; assay type: biochemical; settings: 10 μM, ATP near Km
Procedure: as §1

EGFR = EGFR (Homo sapiens (Human), UniProt P00533); test: KinaseProfiler off-target kinase profiling; assay type: biochemical; settings: 10 μM, ATP near Km
Procedure: as §1

PTK5 = PTK5 (Homo sapiens (Human), UniProt P42685); test: KinaseProfiler off-target kinase profiling; assay type: biochemical; settings: 10 μM, ATP near Km
Procedure: as §1

WNK2 = WNK2 (Homo sapiens (Human), UniProt Q9Y3S1); test: KinaseProfiler off-target kinase profiling; assay type: biochemical; settings: 10 μM, ATP near Km
Procedure: as §1

TrkB = TrkB (Homo sapiens (Human), UniProt Q16620); test: KinaseProfiler off-target kinase profiling; assay type: biochemical; settings: 10 μM, ATP near Km
Procedure: as §1

c-RAF = c-RAF (Homo sapiens (Human), UniProt P04049, Y340D/Y341D); test: KinaseProfiler off-target kinase profiling; assay type: biochemical; settings: 10 μM, ATP near Km
Procedure: as §1

MST1 = MST1 (Homo sapiens (Human), UniProt Q13043); test: KinaseProfiler off-target kinase profiling; assay type: biochemical; settings: 10 μM, ATP near Km
Procedure: as §1

ALK4 = ALK4 (Homo sapiens (Human), UniProt P36896); test: KinaseProfiler off-target kinase profiling; assay type: biochemical; settings: 10 μM, ATP near Km
Procedure: as §1

Ros = Ros (Homo sapiens (Human), UniProt P08922); test: KinaseProfiler off-target kinase profiling; assay type: biochemical; settings: 10 μM, ATP near Km
Ros, sequence (P08922 28-2347): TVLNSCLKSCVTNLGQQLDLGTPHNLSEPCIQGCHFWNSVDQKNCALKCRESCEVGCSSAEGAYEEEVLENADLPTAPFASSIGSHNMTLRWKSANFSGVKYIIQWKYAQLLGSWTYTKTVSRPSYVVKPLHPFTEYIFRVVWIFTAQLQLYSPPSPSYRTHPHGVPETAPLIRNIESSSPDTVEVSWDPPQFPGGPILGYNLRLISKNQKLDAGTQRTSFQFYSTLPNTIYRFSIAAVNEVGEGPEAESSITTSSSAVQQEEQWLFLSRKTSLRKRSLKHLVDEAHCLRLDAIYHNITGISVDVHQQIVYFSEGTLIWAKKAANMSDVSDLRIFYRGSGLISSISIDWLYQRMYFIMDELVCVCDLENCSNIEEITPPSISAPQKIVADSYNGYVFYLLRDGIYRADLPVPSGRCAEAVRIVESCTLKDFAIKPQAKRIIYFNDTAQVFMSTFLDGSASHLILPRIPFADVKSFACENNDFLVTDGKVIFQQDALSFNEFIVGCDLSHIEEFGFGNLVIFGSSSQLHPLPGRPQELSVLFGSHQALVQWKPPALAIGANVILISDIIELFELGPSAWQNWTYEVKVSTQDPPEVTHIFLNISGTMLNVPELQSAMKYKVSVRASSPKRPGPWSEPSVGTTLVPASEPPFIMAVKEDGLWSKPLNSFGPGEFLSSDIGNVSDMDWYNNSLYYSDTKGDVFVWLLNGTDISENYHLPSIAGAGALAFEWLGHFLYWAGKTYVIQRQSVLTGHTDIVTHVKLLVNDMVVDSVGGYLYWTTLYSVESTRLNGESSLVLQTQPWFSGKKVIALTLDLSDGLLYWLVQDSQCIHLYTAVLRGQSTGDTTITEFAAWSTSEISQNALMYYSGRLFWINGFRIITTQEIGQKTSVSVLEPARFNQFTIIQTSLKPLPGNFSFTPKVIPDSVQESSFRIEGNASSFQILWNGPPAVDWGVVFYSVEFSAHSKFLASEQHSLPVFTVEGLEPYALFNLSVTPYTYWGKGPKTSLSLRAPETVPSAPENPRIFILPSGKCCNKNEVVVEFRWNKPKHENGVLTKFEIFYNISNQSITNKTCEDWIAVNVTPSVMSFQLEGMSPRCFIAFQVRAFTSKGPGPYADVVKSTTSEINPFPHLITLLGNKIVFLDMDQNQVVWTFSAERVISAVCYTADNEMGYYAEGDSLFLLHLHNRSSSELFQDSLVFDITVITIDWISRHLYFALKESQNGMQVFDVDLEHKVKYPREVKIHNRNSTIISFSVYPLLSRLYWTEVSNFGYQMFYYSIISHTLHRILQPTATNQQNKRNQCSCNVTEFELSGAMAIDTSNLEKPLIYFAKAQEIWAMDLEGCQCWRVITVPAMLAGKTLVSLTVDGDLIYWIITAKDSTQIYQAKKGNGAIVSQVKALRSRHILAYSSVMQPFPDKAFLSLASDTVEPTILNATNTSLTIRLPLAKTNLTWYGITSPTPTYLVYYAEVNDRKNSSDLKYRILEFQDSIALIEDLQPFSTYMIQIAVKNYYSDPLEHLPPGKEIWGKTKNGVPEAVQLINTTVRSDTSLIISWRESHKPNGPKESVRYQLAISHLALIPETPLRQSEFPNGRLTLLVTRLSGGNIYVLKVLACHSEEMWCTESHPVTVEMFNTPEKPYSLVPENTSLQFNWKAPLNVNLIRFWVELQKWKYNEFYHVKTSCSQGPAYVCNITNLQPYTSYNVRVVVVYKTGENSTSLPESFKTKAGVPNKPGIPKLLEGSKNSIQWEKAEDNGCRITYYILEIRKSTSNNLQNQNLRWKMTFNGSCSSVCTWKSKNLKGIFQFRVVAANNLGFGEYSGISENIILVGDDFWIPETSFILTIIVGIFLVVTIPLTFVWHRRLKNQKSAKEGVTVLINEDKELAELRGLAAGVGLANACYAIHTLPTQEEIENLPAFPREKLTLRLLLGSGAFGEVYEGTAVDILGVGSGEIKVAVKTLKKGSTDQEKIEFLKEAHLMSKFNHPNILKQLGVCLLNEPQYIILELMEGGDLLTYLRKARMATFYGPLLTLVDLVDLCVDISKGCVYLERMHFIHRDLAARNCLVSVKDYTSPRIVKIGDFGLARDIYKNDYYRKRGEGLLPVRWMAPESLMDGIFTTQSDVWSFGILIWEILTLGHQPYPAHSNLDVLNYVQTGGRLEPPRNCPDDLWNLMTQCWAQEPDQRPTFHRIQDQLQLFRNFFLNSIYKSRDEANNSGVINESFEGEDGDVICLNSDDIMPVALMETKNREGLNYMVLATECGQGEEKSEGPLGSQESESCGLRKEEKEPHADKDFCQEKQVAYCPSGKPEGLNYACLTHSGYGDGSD
Procedure: as §1

MKK7beta = MKK7beta (Homo sapiens (Human), UniProt O14733); test: KinaseProfiler off-target kinase profiling; assay type: biochemical; settings: 10 μM, ATP near Km
MKK7beta, sequence (O14733 whole entry, change not shown): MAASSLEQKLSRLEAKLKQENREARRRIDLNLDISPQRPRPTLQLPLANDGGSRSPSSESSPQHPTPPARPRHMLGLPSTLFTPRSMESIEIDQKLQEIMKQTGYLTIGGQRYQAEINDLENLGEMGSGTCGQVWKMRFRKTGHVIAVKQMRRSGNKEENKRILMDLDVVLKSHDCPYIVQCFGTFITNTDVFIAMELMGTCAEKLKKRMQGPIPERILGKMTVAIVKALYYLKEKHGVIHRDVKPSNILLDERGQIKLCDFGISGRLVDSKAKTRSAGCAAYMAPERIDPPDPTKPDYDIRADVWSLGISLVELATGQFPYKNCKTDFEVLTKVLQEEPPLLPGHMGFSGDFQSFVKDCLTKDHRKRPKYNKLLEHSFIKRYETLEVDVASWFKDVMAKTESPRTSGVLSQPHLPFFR
Procedure: as §1

IRAK4 = IRAK4 (Homo sapiens (Human), UniProt Q9NWZ3); test: KinaseProfiler off-target kinase profiling; assay type: biochemical; settings: 10 μM, ATP near Km
Procedure: as §1

AKT3 = AKT3 (Homo sapiens (Human), UniProt Q9Y243); test: KinaseProfiler off-target kinase profiling; assay type: biochemical; settings: 10 μM, ATP near Km
Procedure: as §1

Syk = Syk (Homo sapiens (Human), UniProt P43405); test: KinaseProfiler off-target kinase profiling; assay type: biochemical; settings: 10 μM, ATP near Km
Procedure: as §1

Rsk2 = Rsk2 (Homo sapiens (Human), UniProt P51812); test: KinaseProfiler off-target kinase profiling; assay type: biochemical; settings: 10 μM, ATP near Km
Procedure: as §1

PKCeta = PKCeta (Homo sapiens (Human), UniProt P24723); test: KinaseProfiler off-target kinase profiling; assay type: biochemical; settings: 10 μM, ATP near Km
Procedure: as §1

PDGFRbeta = PDGFRbeta (Homo sapiens (Human), UniProt P09619); test: KinaseProfiler off-target kinase profiling; assay type: biochemical; settings: 10 μM, ATP near Km
Procedure: as §1

JNK2alpha2 = JNK2alpha2 (Homo sapiens (Human), UniProt P45984); test: KinaseProfiler off-target kinase profiling; assay type: biochemical; settings: 10 μM, ATP near Km
Procedure: as §1

CDK5/p35 = CDK5/p35 (Homo sapiens (Human), UniProt Q00535); test: KinaseProfiler off-target kinase profiling; assay type: biochemical; settings: 10 μM, ATP near Km
Procedure: as §1

CDK7/cyclinH/MAT1 = CDK7/cyclinH/MAT1 (Homo sapiens (Human), UniProt P50613); test: KinaseProfiler off-target kinase profiling; assay type: biochemical; settings: 10 μM, ATP near Km
CDK7/cyclinH/MAT1, sequence (P50613 whole entry): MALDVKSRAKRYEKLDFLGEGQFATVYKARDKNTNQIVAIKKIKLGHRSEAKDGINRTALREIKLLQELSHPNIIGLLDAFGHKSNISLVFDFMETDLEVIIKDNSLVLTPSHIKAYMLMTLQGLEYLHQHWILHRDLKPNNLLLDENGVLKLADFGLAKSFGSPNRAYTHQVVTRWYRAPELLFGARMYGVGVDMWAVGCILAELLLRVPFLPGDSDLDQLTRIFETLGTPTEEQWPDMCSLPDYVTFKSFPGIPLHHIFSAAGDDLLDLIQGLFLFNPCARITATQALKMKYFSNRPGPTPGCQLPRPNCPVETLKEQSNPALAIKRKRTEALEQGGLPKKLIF
CDK7/cyclinH/MAT1, sequence (P51946 whole entry partner): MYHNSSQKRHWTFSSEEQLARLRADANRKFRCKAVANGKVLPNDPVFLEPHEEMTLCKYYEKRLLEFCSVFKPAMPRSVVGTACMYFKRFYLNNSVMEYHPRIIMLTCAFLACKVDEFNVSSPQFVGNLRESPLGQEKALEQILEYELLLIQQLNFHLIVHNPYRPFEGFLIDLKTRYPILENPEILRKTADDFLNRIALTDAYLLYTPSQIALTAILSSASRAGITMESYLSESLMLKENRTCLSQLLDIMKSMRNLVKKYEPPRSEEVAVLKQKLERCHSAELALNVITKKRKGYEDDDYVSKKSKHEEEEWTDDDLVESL
CDK7/cyclinH/MAT1, sequence (P51948 whole entry partner): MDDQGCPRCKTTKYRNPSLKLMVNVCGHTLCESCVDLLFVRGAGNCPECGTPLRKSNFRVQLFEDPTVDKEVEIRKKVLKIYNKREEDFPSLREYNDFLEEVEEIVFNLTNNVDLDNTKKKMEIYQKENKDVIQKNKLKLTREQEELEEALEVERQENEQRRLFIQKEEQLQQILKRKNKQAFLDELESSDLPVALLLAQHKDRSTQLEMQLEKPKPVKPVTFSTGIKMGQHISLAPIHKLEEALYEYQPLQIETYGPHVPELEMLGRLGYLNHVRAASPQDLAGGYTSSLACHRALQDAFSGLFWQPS
Procedure: as §1

MKK6 = MKK6 (Homo sapiens (Human), UniProt P52564); test: KinaseProfiler off-target kinase profiling; assay type: biochemical; settings: 10 μM, ATP near Km
Procedure: as §1

Abl-P = Abl-P (Homo sapiens (Human), UniProt P00519); test: KinaseProfiler off-target kinase profiling; assay type: biochemical; settings: 10 μM, ATP near Km
Procedure: as §1

Abl2 = Abl2 (Homo sapiens (Human), UniProt P42684); test: KinaseProfiler off-target kinase profiling; assay type: biochemical; settings: 10 μM, ATP near Km
Procedure: as §1

KIT = KIT (Homo sapiens (Human), UniProt P10721); test: KinaseProfiler off-target kinase profiling; assay type: biochemical; settings: 10 μM, ATP near Km
KIT, sequence (P10721 26-976): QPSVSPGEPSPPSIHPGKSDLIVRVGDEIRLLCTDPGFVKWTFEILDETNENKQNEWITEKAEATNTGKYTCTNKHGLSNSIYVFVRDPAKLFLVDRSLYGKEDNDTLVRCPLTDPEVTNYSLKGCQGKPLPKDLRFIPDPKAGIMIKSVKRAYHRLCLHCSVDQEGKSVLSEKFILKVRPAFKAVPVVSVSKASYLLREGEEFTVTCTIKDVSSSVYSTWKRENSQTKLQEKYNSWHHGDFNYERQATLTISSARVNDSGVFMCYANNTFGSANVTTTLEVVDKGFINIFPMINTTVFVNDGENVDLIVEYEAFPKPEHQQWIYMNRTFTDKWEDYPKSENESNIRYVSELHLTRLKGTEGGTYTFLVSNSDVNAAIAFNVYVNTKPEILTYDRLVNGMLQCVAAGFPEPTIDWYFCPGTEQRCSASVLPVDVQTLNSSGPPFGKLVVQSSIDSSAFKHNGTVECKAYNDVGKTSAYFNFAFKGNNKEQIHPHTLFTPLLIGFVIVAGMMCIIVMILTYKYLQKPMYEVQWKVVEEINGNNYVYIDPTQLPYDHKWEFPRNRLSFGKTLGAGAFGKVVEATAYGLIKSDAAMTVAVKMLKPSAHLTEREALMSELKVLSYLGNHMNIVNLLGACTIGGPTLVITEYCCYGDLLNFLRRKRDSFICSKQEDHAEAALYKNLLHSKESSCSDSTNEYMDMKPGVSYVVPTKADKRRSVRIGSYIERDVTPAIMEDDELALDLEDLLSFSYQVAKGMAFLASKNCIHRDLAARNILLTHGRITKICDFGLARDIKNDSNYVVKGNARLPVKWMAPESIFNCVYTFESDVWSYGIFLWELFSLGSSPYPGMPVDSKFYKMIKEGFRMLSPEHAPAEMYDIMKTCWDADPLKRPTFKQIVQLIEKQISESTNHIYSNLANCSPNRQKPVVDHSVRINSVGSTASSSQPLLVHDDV
Procedure: as §1

Pim-3 = Pim-3 (Homo sapiens (Human), UniProt Q86V86); test: KinaseProfiler off-target kinase profiling; assay type: biochemical; settings: 10 μM, ATP near Km
Procedure: as §1

ErbB4 = ErbB4 (Homo sapiens (Human), UniProt Q15303); test: KinaseProfiler off-target kinase profiling; assay type: biochemical; settings: 10 μM, ATP near Km
Procedure: as §1

PAK2 = PAK2 (Homo sapiens (Human), UniProt Q13177); test: KinaseProfiler off-target kinase profiling; assay type: biochemical; settings: 10 μM, ATP near Km
Procedure: as §1

IGF-1R = IGF-1R (Homo sapiens (Human), UniProt P08069); test: KinaseProfiler off-target kinase profiling; assay type: biochemical; settings: 10 μM, ATP near Km
Procedure: as §1

EphA3 = EphA3 (Homo sapiens (Human), UniProt P29320); test: KinaseProfiler off-target kinase profiling; assay type: biochemical; settings: 10 μM, ATP near Km
Procedure: as §1

Fms = Fms (Homo sapiens (Human), UniProt P07333); test: KinaseProfiler off-target kinase profiling; assay type: biochemical; settings: 10 μM, ATP near Km
Procedure: as §1

[1] = target: His-tagged recombinant human TrkA (Homo sapiens (Human), UniProt P04629); test: TrkA LanthaScreen Eu Kinase Binding Assay; settings: averaged IC50; TR-FRET binding, 60 min, 22° C.; read-out: TrkA Enzyme IC50
His-tagged recombinant human TrkA, sequence (P04629 440-796): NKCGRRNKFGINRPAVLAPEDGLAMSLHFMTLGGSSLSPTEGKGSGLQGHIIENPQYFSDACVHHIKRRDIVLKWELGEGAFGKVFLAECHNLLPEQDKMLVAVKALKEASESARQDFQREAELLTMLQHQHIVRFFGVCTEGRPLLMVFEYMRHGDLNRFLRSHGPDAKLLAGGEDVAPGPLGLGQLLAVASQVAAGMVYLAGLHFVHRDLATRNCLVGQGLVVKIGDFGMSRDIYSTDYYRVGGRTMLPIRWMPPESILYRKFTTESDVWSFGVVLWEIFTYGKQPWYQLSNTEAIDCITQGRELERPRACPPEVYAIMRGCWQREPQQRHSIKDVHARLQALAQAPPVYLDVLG
How it was run: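 Three-fold compound dilutions (2% DMSO final) were incubated 60 min at 22° C. with 5 nM His-TrkA cytoplasmic domain, tracer 236 (4 nM), biotinylated anti-His (2 nM) and europium streptavidin (2 nM) in MOPS pH 7.5 buffer. Emission ratio 665/615 gave percent of control; four-parameter fit yielded IC50.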

Row | Avg. POC (MST2) [POC] | Avg. POC (CHK2) [POC] | Avg. POC (LIMK1) [POC] | Avg. POC (MELK) [POC] | Avg. POC (EGFR) [POC] | Avg. POC (PTK5) [POC] | Avg. POC (WNK2) [POC] | Avg. POC (TrkB) [POC] | Avg. POC (c-RAF) [POC] | Avg. POC (MST1) [POC] | Avg. POC (ALK4) [POC] | Avg. POC (Ros) [POC] | Avg. POC (MKK7beta) [POC] | Avg. POC (IRAK4) [POC] | Avg. POC (AKT3) [POC] | Avg. POC (Syk) [POC] | Avg. POC (Rsk2) [POC] | Avg. POC (PKCeta) [POC] | Avg. POC (PDGFRbeta) [POC] | Avg. POC (JNK2alpha2) [POC] | SMILES | further results
1 | 110.5 | 119 | 105 | 142 | 114 | 122 | 99 | −2 | 103.5 | 111.5 | 98.5 | 106.5 | 129.5 | 125.5 | 116.5 | 115 | 137 | 107 | 149 | 103.5 | Cc1c(-c2cnn(C)c2)nn(-c2ccccc2)c1NC(=O)N[C@H]1CCCc2ccccc21 [Example 2, (S)-1-(1′,4-dimethyl-1-phenyl-1H,1′H-3,4′-bipyrazol-5-yl)-3-(1,2,3,4-tetrahydronaphthalen-1-yl)urea] | Avg. POC (CDK5/p35): 124 POC; Avg. POC (CDK7/cyclinH/MAT1): 111 POC; Avg. POC (MKK6): 130 POC; Avg. POC (Abl-P): 146.5 POC; Avg. POC (Abl2): 112.5 POC; Avg. POC (KIT): 104 POC; Avg. POC (Pim-3): 98 POC; Avg. POC (ErbB4): 148 POC; Avg. POC (PAK2): 104 POC; Avg. POC (IGF-1R): 18 POC; Avg. POC (EphA3): 123.5 POC; Avg. POC (Fms): 82 POC; IC50 [1]: < 100 nM
2 | 106.5 | 92 | 97.5 | 67 | 109.5 | 100 | 106.5 | 1 | 96 | 92 | 101 | 97.5 | 122.5 | 95.5 | 94 | 108.5 | 103 | 100 | 125.5 | 96 | Cc1c(-c2cnn(C)c2)nn(-c2ccccc2)c1NC(=O)NC1CCOc2cc(F)ccc21 (centres unmarked) [Example 12, 1-(1′,4-dimethyl-1-phenyl-1H,1′H-[3,4′-bipyrazol]-5-yl)-3-(7-fluorochroman-4-yl)urea] | Avg. POC (CDK5/p35): 106.5 POC; Avg. POC (CDK7/cyclinH/MAT1): 101 POC; Avg. POC (MKK6): 123 POC; Avg. POC (Abl-P): 135.5 POC; Avg. POC (Abl2): 118 POC; Avg. POC (KIT): 102.5 POC; Avg. POC (Pim-3): 100.5 POC; Avg. POC (ErbB4): 122 POC; Avg. POC (PAK2): 97 POC; Avg. POC (IGF-1R): 80 POC; Avg. POC (EphA3): 114.5 POC; Avg. POC (Fms): 91 POC; IC50 [1]: < 100 nM
3 | 111 | 109 | 102 | 86 | 108 | 110 | 108 | 1.5 | 106.5 | 102 | 102.5 | 106.5 | 144.5 | 102 | 96 | 93.5 | 105.5 | 98 | 122.5 | 104 | Cc1c(-c2ccc(=O)n(C)c2)nn(-c2ccccc2)c1NC(=O)NC1CN(CC(F)(F)F)Cc2ccccc21 (centres unmarked) [Example 26, 1-(4-methyl-3-(1-methyl-6-oxo-1,6-dihydropyridin-3-yl)-1-phenyl-1H-pyrazol-5-yl)-3-(2-(2,2,2-trifluoroethyl)-1,2,3,4-tetrahydroisoquinolin-4-yl)urea] | Avg. POC (CDK5/p35): 110.5 POC; Avg. POC (CDK7/cyclinH/MAT1): 113.5 POC; Avg. POC (MKK6): 121.5 POC; Avg. POC (Abl-P): 131 POC; Avg. POC (Abl2): 105 POC; Avg. POC (KIT): 94 POC; Avg. POC (Pim-3): 98 POC; Avg. POC (ErbB4): 115.5 POC; Avg. POC (PAK2): 99.5 POC; Avg. POC (IGF-1R): 60.5 POC; Avg. POC (EphA3): 128 POC; Avg. POC (Fms): 96 POC
4 | 111.5 | 112 | 95 | 98 | 102 | 104 | 108.5 | −0.5 | 101.5 | 105.5 | 100.5 | 97.5 | 138.5 | 99 | 77.5 | 115 | 92.5 | 111.5 | 131.5 | 102.5 | COCc1ccc2c(c1)C(NC(=O)Nc1c(C)c(-c3cnn(C)c3)nn1-c1ccccc1)COC2 (centres unmarked) [Example 32, 1-(1′,4-dimethyl-1-phenyl-1H,1′H-[3,4′-bipyrazol]-5-yl)-3-(6-(methoxymethyl)isochroman-4-yl)urea] | Avg. POC (CDK5/p35): 112 POC; Avg. POC (CDK7/cyclinH/MAT1): 122.5 POC; Avg. POC (MKK6): 134.5 POC; Avg. POC (Abl-P): 124.5 POC; Avg. POC (Abl2): 121.5 POC; Avg. POC (KIT): 94.5 POC; Avg. POC (Pim-3): 112 POC; Avg. POC (ErbB4): 108.5 POC; Avg. POC (PAK2): 108.5 POC; Avg. POC (IGF-1R): 84.5 POC; Avg. POC (EphA3): 122 POC; Avg. POC (Fms): 102 POC; IC50 [1]: < 100 nM
